We go through 15 molecules from BindingDB's records for PubMed 20126400 (University of Oklahoma, 2010).

Common to all, as to assay: Ray2010 Assay 74
For one experiment, the target named is D(1A) dopamine receptor (Homo sapiens, UniProt P21728). From the text: (§1) Table S2 shows raw Ki data for the current study combined with data collected from the literature for the ten additional compounds.
The next experiment concerns the target T1, D(4) dopamine receptor (Homo sapiens, UniProt P21917).
T1 sequence (P21917 whole entry): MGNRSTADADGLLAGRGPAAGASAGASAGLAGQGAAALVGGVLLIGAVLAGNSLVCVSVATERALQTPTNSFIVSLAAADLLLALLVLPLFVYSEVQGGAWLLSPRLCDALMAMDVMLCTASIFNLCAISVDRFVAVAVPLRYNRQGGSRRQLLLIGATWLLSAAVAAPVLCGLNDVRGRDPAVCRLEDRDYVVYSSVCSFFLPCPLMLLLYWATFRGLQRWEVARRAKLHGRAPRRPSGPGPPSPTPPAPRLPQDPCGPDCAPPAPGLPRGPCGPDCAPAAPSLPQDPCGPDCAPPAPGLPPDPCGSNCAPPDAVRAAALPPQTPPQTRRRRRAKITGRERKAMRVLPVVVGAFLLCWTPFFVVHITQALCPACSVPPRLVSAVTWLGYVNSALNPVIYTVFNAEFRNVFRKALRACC
Description: as §1

Experiment [1] addresses T2, Gamma-aminobutyric acid receptor subunit alpha-1 (Homo sapiens, UniProt P14867).
T2 sequence (P14867 whole entry): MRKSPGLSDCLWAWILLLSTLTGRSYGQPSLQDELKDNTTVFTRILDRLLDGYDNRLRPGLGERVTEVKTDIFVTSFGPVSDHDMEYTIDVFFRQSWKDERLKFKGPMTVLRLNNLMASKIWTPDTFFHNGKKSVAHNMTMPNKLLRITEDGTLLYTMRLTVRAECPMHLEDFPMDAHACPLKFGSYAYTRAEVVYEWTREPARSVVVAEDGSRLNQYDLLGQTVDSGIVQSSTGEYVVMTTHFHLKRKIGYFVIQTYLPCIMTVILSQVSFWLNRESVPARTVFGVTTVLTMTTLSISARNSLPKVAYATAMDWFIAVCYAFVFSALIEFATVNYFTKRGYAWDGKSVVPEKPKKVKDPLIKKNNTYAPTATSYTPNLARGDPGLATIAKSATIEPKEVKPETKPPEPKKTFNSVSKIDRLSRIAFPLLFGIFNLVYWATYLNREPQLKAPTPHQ
Description: as §1

Experiment [2] deals with Kappa-type opioid receptor (Homo sapiens, UniProt P41145).
Kappa-type opioid receptor, sequence (P41145 whole entry): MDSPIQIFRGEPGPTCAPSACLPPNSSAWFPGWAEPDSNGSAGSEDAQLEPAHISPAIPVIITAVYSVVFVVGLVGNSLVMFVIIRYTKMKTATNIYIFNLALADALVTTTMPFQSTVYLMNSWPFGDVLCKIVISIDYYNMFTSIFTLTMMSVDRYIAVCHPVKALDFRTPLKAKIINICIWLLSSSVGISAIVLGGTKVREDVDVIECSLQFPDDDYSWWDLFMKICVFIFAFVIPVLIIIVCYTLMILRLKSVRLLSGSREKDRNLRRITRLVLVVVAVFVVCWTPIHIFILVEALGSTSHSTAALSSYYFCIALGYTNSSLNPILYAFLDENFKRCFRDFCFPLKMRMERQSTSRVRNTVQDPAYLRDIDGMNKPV
Description: as §1

For experiment [3], the target named is T3, Muscarinic acetylcholine receptor M1 (Homo sapiens, UniProt P11229).
T3 sequence (P11229 whole entry): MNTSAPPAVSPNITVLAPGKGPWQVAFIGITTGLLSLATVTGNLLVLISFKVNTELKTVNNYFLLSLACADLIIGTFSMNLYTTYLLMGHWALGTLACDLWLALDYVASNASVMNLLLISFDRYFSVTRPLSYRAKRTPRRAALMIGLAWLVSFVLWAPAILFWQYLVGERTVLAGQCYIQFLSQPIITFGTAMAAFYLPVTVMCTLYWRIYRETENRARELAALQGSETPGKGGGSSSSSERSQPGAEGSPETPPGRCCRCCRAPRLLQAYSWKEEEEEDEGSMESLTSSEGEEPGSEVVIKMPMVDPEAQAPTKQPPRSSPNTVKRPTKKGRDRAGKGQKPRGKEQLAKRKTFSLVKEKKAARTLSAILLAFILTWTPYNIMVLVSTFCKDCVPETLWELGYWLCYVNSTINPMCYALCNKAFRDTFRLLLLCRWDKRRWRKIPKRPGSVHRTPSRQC
Description: as §1

The target in experiment [4] is T4, Muscarinic acetylcholine receptor M2 (Homo sapiens, UniProt P08172).
T4 sequence (P08172 whole entry): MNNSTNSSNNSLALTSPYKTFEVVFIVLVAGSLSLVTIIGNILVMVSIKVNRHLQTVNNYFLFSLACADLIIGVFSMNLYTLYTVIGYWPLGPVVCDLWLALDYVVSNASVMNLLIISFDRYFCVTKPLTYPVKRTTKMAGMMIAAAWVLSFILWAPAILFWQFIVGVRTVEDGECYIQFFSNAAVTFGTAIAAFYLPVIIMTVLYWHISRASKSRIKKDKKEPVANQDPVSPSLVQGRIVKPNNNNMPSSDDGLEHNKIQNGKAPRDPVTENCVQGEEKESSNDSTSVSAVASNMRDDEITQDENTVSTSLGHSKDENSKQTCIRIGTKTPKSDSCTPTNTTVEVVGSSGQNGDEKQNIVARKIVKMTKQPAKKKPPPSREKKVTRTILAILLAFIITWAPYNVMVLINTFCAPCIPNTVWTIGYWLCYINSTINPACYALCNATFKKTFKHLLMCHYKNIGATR
Description: as §1

Experiment [5] addresses Sodium-dependent noradrenaline transporter (Homo sapiens, UniProt P23975).
Description: as §1

For experiment [6], the target named is Sodium-dependent serotonin transporter (Homo sapiens, UniProt P31645).
Sodium-dependent serotonin transporter, sequence (P31645 whole entry): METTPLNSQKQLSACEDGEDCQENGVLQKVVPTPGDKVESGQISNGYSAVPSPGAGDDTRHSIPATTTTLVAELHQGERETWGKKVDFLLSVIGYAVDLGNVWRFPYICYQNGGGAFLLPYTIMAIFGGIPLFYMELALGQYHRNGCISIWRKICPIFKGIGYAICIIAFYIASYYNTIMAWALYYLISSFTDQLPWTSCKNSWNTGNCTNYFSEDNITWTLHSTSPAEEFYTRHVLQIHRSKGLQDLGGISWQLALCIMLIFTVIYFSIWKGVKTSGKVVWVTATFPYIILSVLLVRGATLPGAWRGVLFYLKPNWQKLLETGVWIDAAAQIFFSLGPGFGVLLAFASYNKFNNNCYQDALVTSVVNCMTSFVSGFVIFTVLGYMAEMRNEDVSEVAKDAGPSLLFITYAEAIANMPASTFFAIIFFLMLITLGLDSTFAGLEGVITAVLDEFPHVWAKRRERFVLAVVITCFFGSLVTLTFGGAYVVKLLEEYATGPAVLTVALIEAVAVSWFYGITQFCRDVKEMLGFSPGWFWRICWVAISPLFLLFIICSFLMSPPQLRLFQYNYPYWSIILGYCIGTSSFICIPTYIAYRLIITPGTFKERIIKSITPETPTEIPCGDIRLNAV
Description: as §1

The target of experiment [7] is T5, 5-hydroxytryptamine receptor 1A (Homo sapiens, UniProt P08908).
T5 sequence (P08908 whole entry): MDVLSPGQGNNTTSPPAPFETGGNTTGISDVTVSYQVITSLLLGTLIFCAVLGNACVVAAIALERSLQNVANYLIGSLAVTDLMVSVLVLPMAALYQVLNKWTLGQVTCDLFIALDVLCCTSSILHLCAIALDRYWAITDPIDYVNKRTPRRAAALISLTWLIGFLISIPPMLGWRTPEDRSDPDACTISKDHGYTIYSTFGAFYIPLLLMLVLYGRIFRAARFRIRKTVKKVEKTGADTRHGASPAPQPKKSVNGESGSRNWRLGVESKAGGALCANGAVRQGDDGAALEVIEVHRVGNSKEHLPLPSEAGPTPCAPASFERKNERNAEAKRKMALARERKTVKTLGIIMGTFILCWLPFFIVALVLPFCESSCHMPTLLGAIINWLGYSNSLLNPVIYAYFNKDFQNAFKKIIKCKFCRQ
Description: as §1

Experiment [8] has as its target 5-hydroxytryptamine receptor 1E (Homo sapiens, UniProt P28566).
Description: as §1

The target of experiment [9] is 5-hydroxytryptamine receptor 2A (Homo sapiens, UniProt P28223).
5-hydroxytryptamine receptor 2A, sequence (P28223 whole entry): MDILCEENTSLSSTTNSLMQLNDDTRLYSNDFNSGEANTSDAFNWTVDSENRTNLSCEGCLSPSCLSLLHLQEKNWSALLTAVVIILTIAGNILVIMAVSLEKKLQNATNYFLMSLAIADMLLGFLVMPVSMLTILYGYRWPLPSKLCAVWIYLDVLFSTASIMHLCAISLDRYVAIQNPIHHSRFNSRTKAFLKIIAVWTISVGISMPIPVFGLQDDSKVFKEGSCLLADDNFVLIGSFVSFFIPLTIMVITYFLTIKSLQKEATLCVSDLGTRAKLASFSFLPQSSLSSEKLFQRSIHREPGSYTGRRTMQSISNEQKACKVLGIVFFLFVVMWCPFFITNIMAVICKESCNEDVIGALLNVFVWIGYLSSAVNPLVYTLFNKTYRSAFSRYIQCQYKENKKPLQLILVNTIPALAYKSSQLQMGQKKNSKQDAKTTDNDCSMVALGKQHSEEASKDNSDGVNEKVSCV
Description: as §1

Sodium-dependent noradrenaline transporter, sequence (P23975 whole entry): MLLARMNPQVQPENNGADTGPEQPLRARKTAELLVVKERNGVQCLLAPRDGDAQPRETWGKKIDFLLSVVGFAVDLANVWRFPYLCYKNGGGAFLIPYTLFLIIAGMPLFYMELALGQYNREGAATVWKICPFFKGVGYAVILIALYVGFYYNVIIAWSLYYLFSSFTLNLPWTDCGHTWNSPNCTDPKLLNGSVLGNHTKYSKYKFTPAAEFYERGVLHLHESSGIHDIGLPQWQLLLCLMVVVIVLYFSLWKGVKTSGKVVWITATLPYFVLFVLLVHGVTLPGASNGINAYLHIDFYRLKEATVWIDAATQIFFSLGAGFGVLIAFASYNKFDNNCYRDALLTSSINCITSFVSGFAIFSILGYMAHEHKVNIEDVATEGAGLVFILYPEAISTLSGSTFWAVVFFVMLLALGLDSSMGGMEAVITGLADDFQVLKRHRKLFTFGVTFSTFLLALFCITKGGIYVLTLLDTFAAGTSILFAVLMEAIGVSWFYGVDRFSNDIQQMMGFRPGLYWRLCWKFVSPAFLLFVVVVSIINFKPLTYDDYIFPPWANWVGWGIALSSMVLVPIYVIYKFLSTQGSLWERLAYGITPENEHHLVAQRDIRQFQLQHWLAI
5-hydroxytryptamine receptor 1E, sequence (P28566 whole entry): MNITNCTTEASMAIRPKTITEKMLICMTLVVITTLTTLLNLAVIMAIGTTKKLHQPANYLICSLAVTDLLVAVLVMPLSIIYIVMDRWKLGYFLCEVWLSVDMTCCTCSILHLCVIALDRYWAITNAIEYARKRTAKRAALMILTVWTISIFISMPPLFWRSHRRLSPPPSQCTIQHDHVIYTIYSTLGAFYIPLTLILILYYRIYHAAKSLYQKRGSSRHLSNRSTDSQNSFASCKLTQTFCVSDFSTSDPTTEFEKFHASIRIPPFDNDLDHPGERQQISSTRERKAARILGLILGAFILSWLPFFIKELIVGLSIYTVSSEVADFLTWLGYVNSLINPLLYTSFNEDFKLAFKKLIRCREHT
D(1A) dopamine receptor, sequence (P21728 whole entry): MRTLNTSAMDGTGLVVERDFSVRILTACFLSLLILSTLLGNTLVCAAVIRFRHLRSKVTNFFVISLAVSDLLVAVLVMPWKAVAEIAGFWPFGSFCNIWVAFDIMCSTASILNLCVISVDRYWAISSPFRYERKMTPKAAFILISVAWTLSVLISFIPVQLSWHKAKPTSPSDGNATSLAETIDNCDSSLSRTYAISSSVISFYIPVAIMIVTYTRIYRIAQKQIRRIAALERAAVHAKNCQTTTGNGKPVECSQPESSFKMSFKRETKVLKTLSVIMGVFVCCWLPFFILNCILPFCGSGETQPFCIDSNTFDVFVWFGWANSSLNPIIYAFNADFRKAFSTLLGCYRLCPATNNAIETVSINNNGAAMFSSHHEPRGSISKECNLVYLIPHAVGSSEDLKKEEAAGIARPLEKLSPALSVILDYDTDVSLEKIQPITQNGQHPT

As to `COc1ccc2[nH]cc(CCN(C)C)c2c1` [3-(2-DIMETHYLAMINOETHYL)-5-METHOXYINDOLE], the inhibitory constant (Ki) (in general, the equilibrium dissociation constant of an inhibitor or competing ligand from its target) at D(1A) dopamine receptor is 0.0795 µM; on D(4) dopamine receptor it was 3.12 µM; in experiment [1], > 10 µM; in experiment [2], > 10 µM; in [3] it was > 10 µM; in experiment [4], > 10 µM. Also, the Ki in experiment [5] came out at 2.86 µM; in experiment [6], 2.03 µM.
Regarding `NCCc1c2c(c(Br)c3c1OCC3)OCC2` [2-(8-Bromo-2,3,6,7-tetrahydro-benzo[1,2-b;4,5-b']difuran-4-yl)-ethylamine], the inhibition constant (Ki) in experiment [7] was 0.147 µM; in experiment [8], 0.11 µM; in experiment [9] it was 0.0116 µM; at D(1A) dopamine receptor, 4.96 µM; at D(4) dopamine receptor it was > 10 µM; in experiment [1], > 10 µM. Further, the Ki is > 10 µM in experiment [2], 2.03 µM in experiment [4], > 10 µM in experiment [5] and > 10 µM in experiment [6].
Consider `COc1cc(CC(C)N)cc(OC)c1OC` (stereo unspecified), for which the Ki in experiment [7] is 1.68 µM; in experiment [8], 3.37 µM; in experiment [9], > 10 µM; at D(1A) dopamine receptor it was > 10 µM; on D(4) dopamine receptor it was > 10 µM; in [1], > 10 µM. Also, the Ki in experiment [2], in experiment [4], in experiment [5] and in experiment [6] was > 10 µM each time.
As for `CC(N)Cc1ccc2c(c1)OCO2` (stereo unspecified), the Ki in [7] was 3.76 µM; in experiment [8], > 10 µM; in experiment [9], > 10 µM; on D(1A) dopamine receptor, > 10 µM; at D(4) dopamine receptor, > 10 µM; in [1], > 10 µM. In addition, the Ki in experiment [2], in experiment [4], in experiment [5] and in [6] was > 10 µM each time.
Consider `C[C@@H]1C[C@H](C)N1C(=O)C1C=C2c3cccc4[nH]cc(c34)C[C@H]2N(C)C1` (stereo partly drawn) [cis-2a], for which the Ki in [7] is 0.0023 µM; in experiment [8] it was 0.195 µM; in experiment [9], 0.0297 µM; on D(1A) dopamine receptor it was 0.232 µM; in experiment [1], > 10 µM; in [2] it was > 10 µM. Also, the inhibition constant Ki in [5] and in experiment [6] was > 10 µM throughout.
As for `CC[C@H]1C[C@@H]2C[C@H]3c4[nH]c5ccc(OC)cc5c4CCN(C2)[C@@H]13`, the Ki in experiment [7] was > 10 µM; in experiment [9], 14.1 µM; at D(1A) dopamine receptor it was > 10 µM; on D(4) dopamine receptor it was > 10 µM; in [1], > 10 µM; in experiment [3], 22.5 µM. The same molecule came in with a Ki in [4] of 39.4 µM.
Consider `CCSc1cc(OC)c(CC(C)N)cc1OC` (stereo unspecified) [2-(4-Ethylsulfanyl-2,5-dimethoxy-phenyl)-1-methyl-ethylamine], for which the Ki was 1.67 µM in experiment [7]; 0.0604 µM in experiment [9]; > 10 µM on D(1A) dopamine receptor; > 10 µM at D(4) dopamine receptor; > 10 µM in experiment [1]; > 10 µM in experiment [2]. For the same molecule, the Ki is > 10 µM in experiment [3], > 10 µM in [4], > 10 µM in [5] and 1.32 µM in experiment [6].
Take `COc1ccc2[nH]c(C)c(CCN(C)C)c2c1` [[2-(5-Methoxy-2-methyl-1H-indol-3-yl)-ethyl]-dimethyl-amine (C2H2O)]: the Ki (in experiment [9]; on D(4) dopamine receptor; in [2]; in experiment [3]; in [4]) was > 10 µM throughout.
For `CN(C)CCc1c[nH]c2ccccc12` [2-(1H-indol-3-yl)-N,N-dimethylethanamine], the Ki in experiment [8] was 0.456 µM; in [9], 2.32 µM; at D(4) dopamine receptor, > 10 µM; in [1] it was > 10 µM; in [2], > 10 µM; in experiment [3], > 10 µM. Also, the Ki is > 10 µM in experiment [4], > 10 µM in experiment [5] and 3.74 µM in experiment [6].
`C[C@@H]1C[C@@H](C)N1C(=O)C1C=C2c3cccc4[nH]cc(c34)C[C@H]2N(C)C1` (stereo partly specified) [rr-2b]: the Ki in [7] is 0.0052 µM; in [8] it was 0.138 µM; in experiment [9], 0.69 µM; on D(1A) dopamine receptor it was 0.342 µM; in experiment [1], > 10 µM; in [2], > 10 µM. Moreover, the inhibition constant (Ki) in experiment [5] and in experiment [6] was > 10 µM in each case.
`COc1cc(OC)c(OC)cc1CC(C)N` (stereo not drawn) [(+/-)1-Methyl-2-(2,4,5-trimethoxy-phenyl)-ethylamine]: the Ki in experiment [7] is > 10 µM; in experiment [8] it was > 10 µM; in experiment [9], 0.584 µM; at D(1A) dopamine receptor, > 10 µM; on D(4) dopamine receptor, > 10 µM; in experiment [4] it was > 10 µM. Moreover, the Ki in [5] and in experiment [6] was > 10 µM throughout.
As for `CCN(CC)C(=O)[C@@H]1C=C2c3cccc4[nH]cc(c34)C[C@H]2N(C)C1` [[N-methyl-3H]LSD], the Ki at D(1A) dopamine receptor was 0.177 µM; on D(4) dopamine receptor, 0.158 µM; in experiment [1], > 10 µM; in [2], > 10 µM; in experiment [5] it was > 10 µM; in [6] it was > 10 µM.
Take `CCc1[nH]c2ccc(OC)cc2c1CCN(C)C` [2-ethyl-5-methoxy-N,N-dimethyltryptamine]: the Ki (in experiment [9]; on D(4) dopamine receptor; in experiment [2]; in experiment [3]; in experiment [4]) was > 10 µM each time.
For `CN(C)CCc1c[nH]c2cccc(O)c12` [4-hydroxy-N,N-dimethyltryptamine], the Ki (at D(4) dopamine receptor; in experiment [1]; in [2]; in experiment [3]; in experiment [4]; in experiment [5]) was > 10 µM in each case. In experiment [6], this molecule displayed an inhibitory constant (Ki) of 0.852 µM.
With `CCc1cc(OC)c(CC(C)N)cc1OC` (stereo unspecified), the inhibition constant (Ki) was 0.0144 µM in experiment [7]; 3.55 µM in experiment [8]; 0.0273 µM in experiment [9]; > 10 µM on D(1A) dopamine receptor; > 10 µM at D(4) dopamine receptor; > 10 µM in [1]. Moreover, the Ki in experiment [2], in experiment [4], in experiment [5] and in experiment [6] was > 10 µM each time.
